Measurements: paper PMC10610214 (Pharmaceuticals, 2023)

Key:
DPPH radical scavenging = type: physicochemical; conditions: vs no-compound group
Description: DPPH is a commercially available stable organic nitrogen radical with maximum UV absorption at 515 nm. After reduction, the color of the solution fades (absorbance decreases). Therefore, this method was used to evaluate the antioxidant capacity of the compounds. In short, 50 μL of DPPH (140 μM) and 50 μL of different concentrations (10, 100, and 1000 μM) of compound 4h were added together in a 96-well plate and then incubated in the dark at 37 °C for 2 h. The absorbance was measured at 515 nm through the multifunctional microplate reader. The scavenging rate (SR) of DPPH radicals was calculated by the following formula: SR = (1 − Ac/A0) × 100%, where “Ac” is the absorbance of DPPH and the compound solution incubating, and “A0” is the absorbance of the DPPH radical-ethanol solution alone. The experimental results are expressed as the average of three tests.

H2O2-induced PC12 cells = assay: Neuroprotection against H2O2-induced PC12 cell injury (MTT); type: cell-based; conditions: H2O2 250 μM, mean ± SEM
Description: Neuroprotection assay is similar to cytotoxicity. Oxidative cellular damage caused by H2O2 has become one of the important methods to study oxidative damage in neural cells. PC12 cells were seeded into a 96-well plate at a density of 5.0 × 10^3 cells per well. After the cells were incubated overnight, the old medium was discarded. […] After incubating overnight, 20 μL of MTT solution (5 mg/mL, Sigma-Aldrich) was added per well, and the cells were incubated for an additional 4 h. Afterwards, the supernatant was removed and 150 μL of DMSO was added. The 96-well plate was placed on the shaker for 10–15 min, and then the absorbance at 492 nm was measured by a microplate reader.

PC12 cells = assay: Cytotoxicity in PC12 cells (MTT); type: cell-based
Description: The cytotoxicity and neuroprotective effects of the compounds on PC12 cells were evaluated by MTT assay. PC12 cells were seeded into a 96-well plate at a density of 5.0 × 10^3 cells per well. After the cells were incubated overnight, the old medium was discarded. The cells were incubated for another 24 h with fresh medium containing compounds at a concentration of 30 or 50 μM. A total of 20 μL of MTT solution (5 mg/mL, Sigma-Aldrich, Shanghai, China) was then added per well, and the cells were incubated for an additional 4 h. Afterwards, the supernatant was removed and 150 μL of DMSO was added to solubilize formazan crystals. The 96-well plate was placed on the shaker for 10–15 min, and then the absorbance at 492 nm was measured by a microplate reader.

[1] = biological target: T1, BuChE (from equine serum) (Equus caballus, UniProt P81908); assay: biochemical; conditions: mean ± SD of three experiments, read-out: BuChE Inhibition (IC50)
T1 construct: BuChE (from equine serum); purchased Sigma Chemical Company (St. Louis, MO, USA); host or cells: equine serum
T1 sequence (P81908 whole entry): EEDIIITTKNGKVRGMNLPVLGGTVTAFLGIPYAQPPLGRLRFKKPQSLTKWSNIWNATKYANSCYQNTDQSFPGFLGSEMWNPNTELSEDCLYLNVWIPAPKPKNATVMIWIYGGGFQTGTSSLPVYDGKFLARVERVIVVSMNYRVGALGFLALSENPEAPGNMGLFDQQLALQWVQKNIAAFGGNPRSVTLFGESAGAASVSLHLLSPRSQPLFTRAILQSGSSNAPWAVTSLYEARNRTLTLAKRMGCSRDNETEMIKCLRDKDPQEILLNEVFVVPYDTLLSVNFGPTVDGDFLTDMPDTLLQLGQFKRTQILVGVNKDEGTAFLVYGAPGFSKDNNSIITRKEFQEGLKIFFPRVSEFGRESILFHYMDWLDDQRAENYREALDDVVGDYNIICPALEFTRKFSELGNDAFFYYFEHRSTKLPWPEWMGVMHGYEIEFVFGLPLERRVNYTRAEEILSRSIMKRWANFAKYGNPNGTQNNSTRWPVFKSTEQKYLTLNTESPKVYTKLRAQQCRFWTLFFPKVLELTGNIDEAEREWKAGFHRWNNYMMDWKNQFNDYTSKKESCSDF
Description: (§1) The ChE inhibitory activity of the test compounds was determined using the modified Ellman’s method. The compounds were dissolved in DMSO (10 mmol/L) and then diluted with PB (phosphate buffer) solution to attain a range of final concentrations. […] Briefly, 100 μL of different concentrations of the test or standard compounds and 100 μL of AChE/BuChE (0.5 U/mL) were added into 48-well plates and then co-incubated at 37 °C for 30 min. […] All concentrations mentioned are final.

AChE (from electric eel) = biological target: T2, AChE (from electric eel) (Electrophorus electricus, UniProt O42275); assay: biochemical; conditions: for IC50: AChE from electric eel, mean ± SD of three experiments, read-out: AChE Inhibition (IC50); for Selective Index, IC50 (BChE)/IC50 (AChE): AChE selectivity index
T2 construct: AChE (from electric eel); purchased Sigma Chemical Company (St. Louis, MO, USA)
T2 sequence (O42275 24-633): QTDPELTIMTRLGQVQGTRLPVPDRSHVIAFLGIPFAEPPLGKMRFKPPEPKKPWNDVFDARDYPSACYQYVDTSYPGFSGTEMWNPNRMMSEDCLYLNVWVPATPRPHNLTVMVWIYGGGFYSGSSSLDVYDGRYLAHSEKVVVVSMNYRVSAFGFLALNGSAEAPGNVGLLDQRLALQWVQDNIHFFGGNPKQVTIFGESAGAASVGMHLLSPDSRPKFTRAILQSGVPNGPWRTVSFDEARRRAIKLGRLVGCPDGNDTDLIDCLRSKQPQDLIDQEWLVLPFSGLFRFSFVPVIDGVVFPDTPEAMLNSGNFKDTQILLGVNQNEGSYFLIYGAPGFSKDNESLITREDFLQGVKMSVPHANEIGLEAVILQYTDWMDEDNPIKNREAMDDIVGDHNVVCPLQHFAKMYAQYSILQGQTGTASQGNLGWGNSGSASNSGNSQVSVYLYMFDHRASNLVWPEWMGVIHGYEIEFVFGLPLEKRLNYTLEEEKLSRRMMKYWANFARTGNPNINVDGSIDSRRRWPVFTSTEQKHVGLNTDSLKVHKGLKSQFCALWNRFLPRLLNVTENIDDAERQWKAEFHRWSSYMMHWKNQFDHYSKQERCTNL
Description: as §1

Row | Structure (SMILES) | Concentration of DPPH (%) (DPPH radical scavenging; 10 μM compound) | Concentration of DPPH (%) (DPPH radical scavenging; 100 μM compound) | Concentration of DPPH (%) (DPPH radical scavenging; 1000 μM compound) | H2O2-Induced PC12 Cell Viability (% of Control) (H2O2-induced PC12 cells; compound 10 μM) | H2O2-Induced PC12 Cell Viability (% of Control) (H2O2-induced PC12 cells; compound 30 μM) | Cell Viability (% of Control) (PC12 cells; compound 30 μM) | Cell Viability (% of Control) (PC12 cells; compound 50 μM) | IC50 [1] [µM] | IC50 (AChE (from electric eel)) [µM] | Selective Index, IC50 (BChE)/IC50 (AChE) (AChE (from electric eel))
1 | O=C1O[C@H]([C@@H](O)CO)C(O)=C1O [AA, Ascorbic acid, reference compound] | 77.43 ± 2.76 | 58.10 ± 3.42 | 24.2 ± 1.85 | – | – | – | – | – | – | –
2 | O=C1c2ccccc2-n2c1nc1ccc(NS(=O)(=O)c3ccccc3)cc1c2=O [8a] | – | – | – | 39.65 ± 3.1 % of Control | 50.98 ± 1.8 % of Control | 100.1 ± 1.5 % of Control | 99.8 ± 1.7 % of Control | > 50 | 14 ± 1.67 | –
3 | O=C1c2cc(NS(=O)(=O)c3cccc(F)c3)ccc2-n2c1nc1ccccc1c2=O [4g] | – | – | – | 59.88 ± 0.9 % of Control | 68.83 ± 2.7 % of Control | 100 ± 1.3 % of Control | 99.7 ± 0.8 % of Control | 21.6 ± 1.79 | 3.21 ± 0.39 | 6.7
4 | CC(C)(C)c1ccc(S(=O)(=O)Nc2ccc3nc4n(c(=O)c3c2)-c2ccccc2C4=O)cc1 [8c] | – | – | – | 39.10 ± 4.5 % of Control | 49.64 ± 4.1 % of Control | 98.4 ± 1.9 % of Control | 96.7 ± 1.9 % of Control | > 50 | 15.8 ± 2.6 | –
5 | O=C1c2cc(NS(=O)(=O)c3ccccc3)ccc2-n2c1nc1ccccc1c2=O [4a] | – | – | – | 43.29 ± 3.1 % of Control | 48.5 ± 1.5 % of Control | 99.5 ± 1.7 % of Control | 98.3 ± 3.0 % of Control | 9.98 ± 0.64 | 0.97 ± 0.16 | 10.3
6 | O=C1c2ccccc2-n2c1nc1ccc(NS(=O)(=O)c3ccccc3F)cc1c2=O [8h] | – | – | – | 36.03 ± 3.0 % of Control | 46.73 ± 3.5 % of Control | 99.4 ± 1.4 % of Control | 98.3 ± 2.7 % of Control | > 50 | > 50 | –
7 | O=C1c2cc(NS(=O)(=O)c3ccc(Br)cc3)ccc2-n2c1nc1ccccc1c2=O [4e] | – | – | – | 42.8 ± 1.5 % of Control | 57.51 ± 0.8 % of Control | 99.6 ± 2.1 % of Control | 99.5 ± 2.3 % of Control | > 50 | 33 ± 1.91 | –
8 | O=C1c2cc(NS(=O)(=O)c3c(Cl)cccc3Cl)ccc2-n2c1nc1ccccc1c2=O [4p] | – | – | – | 48.49 ± 4.5 % of Control | 65.6 ± 2.2 % of Control | 99.6 ± 2.7 % of Control | 99.3 ± 2.9 % of Control | > 50 | 0.62 ± 0.09 | –
9 | Cc1ccc(S(=O)(=O)Nc2ccc3c(c2)C(=O)c2nc4ccccc4c(=O)n2-3)cc1 [4b] | – | – | – | 47.36 ± 1.7 % of Control | 59.09 ± 2.5 % of Control | 99.7 ± 0.9 % of Control | 99.5 ± 1.5 % of Control | 8.61 ± 1.2 | 5.75 ± 0.27 | 1.5
10 | O=C1c2ccccc2-n2c1nc1ccc(NS(=O)(=O)c3ccc(Br)cc3)cc1c2=O [8e] | – | – | – | 41.78 ± 1.2 % of Control | 55.86 ± 0.9 % of Control | 99.8 ± 0.7 % of Control | 99.7 ± 3.1 % of Control | > 50 | > 50 | –
11 | Cc1ccc(S(=O)(=O)Nc2ccc3nc4n(c(=O)c3c2)-c2ccccc2C4=O)cc1 [8b] | – | – | – | 42.01 ± 1.7 % of Control | 51.37 ± 2.1 % of Control | 101.2 ± 3.1 % of Control | 99.8 ± 2.4 % of Control | > 50 | 4.55 ± 0.8 | –
12 | O=C1c2ccccc2-n2c1nc1ccc(NS(=O)(=O)c3ccccc3C(F)(F)F)cc1c2=O [8o] | – | – | – | 42.56 ± 2.1 % of Control | 54.6 ± 3.8 % of Control | 99.7 ± 2.4 % of Control | 99.4 ± 1.1 % of Control | > 50 | 8.86 ± 0.76 | –
13 | CC(=O)Nc1ccc(S(=O)(=O)Nc2ccc3nc4n(c(=O)c3c2)-c2ccccc2C4=O)cc1 [8i] | – | – | – | 48.46 ± 1.6 % of Control | 59.63 ± 2.5 % of Control | 99.8 ± 1.2 % of Control | 99.4 ± 1.3 % of Control | 25.9 ± 2.38 | > 50 | –
14 | COc1ccc(S(=O)(=O)Nc2ccc3c(c2)C(=O)c2nc4ccccc4c(=O)n2-3)c(OC)c1 [4l] | – | – | – | 36.35 ± 1.6 % of Control | 39.84 ± 2.8 % of Control | 100.2 ± 3.1 % of Control | 99.8 ± 2.7 % of Control | > 50 | 18.6 ± 1.77 | –
15 | O=C1c2cc(NS(=O)(=O)c3ccc(F)cc3)ccc2-n2c1nc1ccccc1c2=O [4f] | – | – | – | 45.23 ± 2.2 % of Control | 55.26 ± 0.5 % of Control | 99.4 ± 1.6 % of Control | 98.7 ± 1.1 % of Control | 11.9 ± 1.86 | 0.56 ± 0.07 | 21.2
16 | O=C1c2ccccc2-n2c1nc1ccc(NS(=O)(=O)c3cccc(F)c3)cc1c2=O [8g] | – | – | – | 44.37 ± 0.5 % of Control | 52.28 ± 2.3 % of Control | 99.6 ± 1.2 % of Control | 99.5 ± 2.7 % of Control | > 50 | > 50 | –
